Laboratory results taken from patent US10752588B2 (The Broad Institute, Inc., priority 2014, dated 2020).

How the values were obtained:
[1] = molecular target: T1, human D2R/β-arrestin (Homo sapiens (Human), UniProt P14416); assay: β-Arrestin agonist assay (PathHunter); type: cell-based; details: CHO-K1 cell line expressing human D2R/β-arrestin
Protocol: (§1) The assays can be performed using proper detection reagents either prepared using routine methods known in the art or commercially available (e.g., PathHunter® β-Arrestin Detecting Kit (DiscoveRX)). Cells are grown to the necessary confluence and then detached. The cells are then centrifuged, washed, resuspended, and seeded into a container (e.g., 384-well plate). The cells are incubated (e.g., at 37° C., 5% CO2) for the appropriate period of time (e.g., 24 hours), before various compounds (e.g., a compound of the invention or a control compound) are added to the cells. After incubation of the cells with the compounds, detection reagents (e.g., a buffer containing Emerald II: Galactor-Star as provided DiscoveRX) are added to the cells. The read-out (e.g., luminescence, or fluorescence) is detected using standard equipment.
The detection reagent (9.6 μL, Buffer:Emerald II:Galactor-Star in a 19:5:1 ratio, i.e., 14.06 mL:3.7 mL:0.74 mL=18.5 mL) was then added to the agonist plates.

[2] = molecular target: T1, human D2R/β-arrestin; assay: Gi/cAMP agonist assay (Lance Ultra cAMP, Forskolin); type: cell-based; details: CHO-K1 cell line expressing human D2R/β-arrestin
Protocol: as §1, with “PE Lance Ultra cAMP kit (TRF0263)).” for “PathHunter® β-Arrestin Detecting Kit (DiscoveRX)).”, “Afterwards, cAMP inducing agents (e.g., Forskolin) are added to and incubated with” for “After incubation of”, “before” for “with the compounds,”, “cAMP antibody, such” for “buffer containing Emerald II: Galactor-Star”, “ULight-anti-cAMP solution)” for “provided DiscoveRX)”, “Read-out” for “The read-out”
Compounds were pin-transferred (100 nL) to the cells, and incubated for 10 min. at 37° C. […] Eu-cAMP tracer solution (100, PerkinElmer, […] in 17.64 ml kit buffer) and ULight-anti-cAMP solution (100, 120 μL antibody in 17.88 ml kit buffer) was then added to each well.

[3] = molecular target: T1, human D2R/β-arrestin; assay: cell-based; details: cAMP Antagonist, CHO-K1 cell line expressing human D2R/β-arrestin; quinpirole used as agonist
[4] = molecular target: T1, human D2R/β-arrestin; assay: cell-based; details: β-arrestin Antagonist, CHO-K1 cell line expressing human D2R/β-arrestin; quinpirole used as agonist

T1 sequence (P14416 whole entry): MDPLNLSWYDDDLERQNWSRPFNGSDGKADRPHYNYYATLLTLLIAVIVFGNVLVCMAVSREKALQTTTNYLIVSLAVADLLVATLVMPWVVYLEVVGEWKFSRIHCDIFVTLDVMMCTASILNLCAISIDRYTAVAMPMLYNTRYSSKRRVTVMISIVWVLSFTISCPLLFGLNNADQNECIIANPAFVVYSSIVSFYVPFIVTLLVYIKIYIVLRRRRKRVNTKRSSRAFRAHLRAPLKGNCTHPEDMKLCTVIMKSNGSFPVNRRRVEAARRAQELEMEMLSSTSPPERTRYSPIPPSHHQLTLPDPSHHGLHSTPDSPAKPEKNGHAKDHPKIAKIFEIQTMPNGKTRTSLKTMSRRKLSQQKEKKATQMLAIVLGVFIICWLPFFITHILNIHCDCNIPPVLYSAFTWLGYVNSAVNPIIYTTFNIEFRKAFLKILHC

| EC50 [1] | EC50 [2] | IC50 [3] | IC50 [4] | Compound |
| --- | --- | --- | --- | --- |
| > 30 µM | > 30000 nM | 100 to 1000 nM | 1000 to 10000 nM | O=C(NC(c1ccc(Cl)cc1)c1ccccn1)C1CCN(CCOc2cccc(Cl)c2)CC1 (single isomer, unassigned) [Compound 1a, 1-(2-(3-chlorophenoxy)ethyl)-N-((4-chlorophenyl)(pyridin-2-yl)methyl)piperidine-4-carboxamide] |
| > 30 µM | 100 to 1000 nM | > 30000 nM | 1000 to 10000 nM | O=C(NC(c1ccc(Cl)cc1)c1ccccn1)C1CCN(CCOc2ccccc2)CC1 (single isomer, unassigned) [Compound 63a, N-((4-chlorophenyl)(pyridin-2-yl)methyl)-1-(2-phenoxyethyl)piperidine-4-carboxamide] |
| > 30 µM | > 30000 nM | 100 to 1000 nM | 100 to 1000 nM | O=C(NC(c1ccc(Cl)cc1)c1ccccn1)C1CCN(CCOc2ccccc2)CC1 (single isomer, unassigned) [Compound 63b, N-((4-chlorophenyl)(pyridin-2-yl)methyl)-1-(2-phenoxyethyl)piperidine-4-carboxamide] |
| 0.1 to 1 µM | 100 to 1000 nM | > 30000 nM | 1000 to 10000 nM | CC1(C(=O)NC(c2ccc(F)cc2)c2ccccn2)CCN(CCOc2ccccc2)CC1 (single isomer, unassigned) [Compound 69a, N-((4-fluorophenyl)(pyridin-2-yl)methyl)-4-methyl-1-(2-phenoxyethyl)piperidine-4-carboxamide] |
| > 30 µM | > 30000 nM | < 100 nM | < 100 nM | CN(CC1CCN(CCOc2ccccc2F)CC1)C(c1ccc(Cl)cc1)c1ccccn1 (single isomer, unassigned) [Compound 72b, 1-(4-chlorophenyl)-N-((1-(2-(2-fluorophenoxy)ethyl)piperidin-4-yl)methyl)-N-methyl-1-(pyridin-2-yl)methanamine] |
| > 30 µM | 1000 to 10000 nM | > 30000 nM | 1000 to 10000 nM | CN(CC1CCN(CCOc2ccccc2)CC1)C(c1ccc(F)cc1)c1ccccn1 (single isomer, unassigned) [Compound 74a, 1-(4-fluorophenyl)-N-methyl-N-((1-(2-phenoxyethyl)piperidin-4-yl)methyl)-1-(pyridin-2-yl)methanamine] |
| > 30 µM | 100 to 1000 nM | 100 to 1000 nM | 100 to 1000 nM | CN(CC1CCN(CCOc2ccccc2)CC1)C(c1ccc(F)cc1)c1ccccn1 (single isomer, unassigned) [Compound 74b, 1-(4-fluorophenyl)-N-methyl-N-((1-(2-phenoxyethyl)piperidin-4-yl)methyl)-1-(pyridin-2-yl)methanamine] |
| > 30 µM | 100 to 1000 nM | 100 to 1000 nM | 1000 to 10000 nM | COc1cccc(C(c2ccccn2)N(C)CC2CCN(CCOc3ccccc3)CC2)c1 (single isomer, unassigned) [Compound 76a, 1-(3-methoxyphenyl)-N-methyl-N-((1-(2-phenoxyethyl)piperidin-4-yl)methyl)-1-(pyridin-2-yl)methanamine] |
| > 30 µM | 100 to 1000 nM | 1000 to 10000 nM | 1000 to 10000 nM | Fc1ccc(C(NCC2CCN(CCOc3ccccc3)CC2)c2ccccn2)cc1 (single isomer, unassigned) [Compound 78a, 1-(4-fluorophenyl)-N-((1-(2-phenoxyethyl)piperidin-4-yl)methyl)-1-(pyridin-2-yl)methanamine] |
| > 30 µM | > 30000 nM | 1000 to 10000 nM | 1000 to 10000 nM | CN(CC1CCN(CCOc2ccccc2)CC1)C(c1ccc(Cl)cc1)c1ccccn1 (single isomer, unassigned) [Compound 79a, 1-(4-chlorophenyl)-N-methyl-N-((1-(2-phenoxyethyl)piperidin-4-yl)methyl)-1-(pyridin-2-yl)methanamine] |
